According to patent US20030187003A1, “Pharmaceutical compositions and method for the treatment of retroviral infections” (priority 2000, published 2003):

Key:
[1] = target: T1, recombinant His-tagged HIV-1 integrase (Human immunodeficiency virus type 1 group M subtype B, UniProt P04585); experiment: HIV-1 integrase strand transfer assay, oligonucleotide-based
[2] = target: T1, recombinant His-tagged HIV-1 integrase; experiment: HIV-1 integrase overall integration assay, oligonucleotide-based
Method: (§1) Reactions were started by the addition of the enzyme. Inhibitors were incubated shortly with the reaction components before the addition of integrase. Reactions were allowed to proceed at 37° C. for 7 minutes and stopped by the addition of formamide loading buffer (95% formamide, 30 mM ethylenediamine tetraacetic acid, 0.1% xylene cyanol, 0.1% bromophenol blue, 0.1% sodium dilaurylsulfate SDS). In the overall integration assay, this reaction was allowed to proceed for 60 minutes before the addition of a formamide dye.

HIV-1 NL43/AMD3100 = experiment: microbe, parasite or virus in culture; assay type: cell-based
HIV-1 integrase = target: T2, HIV-1 integrase (Human immunodeficiency virus type 1 group M subtype B, UniProt P04585); experiment: HIV-1 integrase binding assay, biosensor (BIAcore); settings: preincubation of integrase with 93 μM compound, 37° C.
T2 construct: HIV-1 integrase (100 μl of a 33 μM solution)
Method: Binding experiments were carried out using biosensor technology on BlAcore2000 (Biacore) and sensor chips SA™ with pre-immobilized streptavidin. The binding experiment was carried out at 37° C. following the procedures of the manufacturer. The binding buffer B (20 mM HEPES at pH 7.5) contained 50 mM NaCI, 10 mM MgCl2 and 5 mM DTT. First, the 3′-biotinylated oligonucleotide 5′-[…]-3′ was bound to the sensor chip. Subsequently, the complementary 35-mer 5′-[…]-3′ was hybridized to the captured oligonucleotide, resulting in an integrase recognition sequence at the free end. HIV-1 integrase (100 μl of a 33 μM solution) diluted 10-fold in dilution buffer (10 mM Tris.HCl, pH7.5/750 mM NaCl/10% glycerol/1 mM β-mercaptoethanol) and another 10-fold in buffer B, was injected at a final concentration of 330 nM with a flow rate of 10 μl/minute passing first a blank channel and then the channel with the specific oligonucleotide. A specific adsorption in the blank channel was subtracted.

[3] = system: HIV-1 (NDK, NL4.3 and L1), HIV-2 (ROD and EHO) and SIV (MAC251); experiment: antiviral activity against several HIV and SIV strains; assay type: cell-based; settings: range over HIV-1 (NDK, NL4.3 and L1)
[4] = target: T1, recombinant His-tagged HIV-1 integrase; experiment: HIV-1 integrase 3′-processing assay, oligonucleotide-based
Method: as §1

HIV-1 L1 = experiment: inhibition of virus-induced cytopathicity in MT-4 cells, HIV-1 clinical isolate L1; assay type: cell-based; settings: Human immunodeficiency virus 1, MT4, 120 h, read-out: EC50 HIV-1 L1
HIV-1 L2 = assay type: cell-based
HIV-1(IIIB) = experiment: inhibition of virus-induced cytopathicity in MT-4 cells, HIV-1 (IIIB); assay type: cell-based; settings: for EC50: MT-4 cells, viral cytopathic effect, 5 days post-infection
[5] = target: T3, Recombinant HIV-1 RT (HXB2) (Human immunodeficiency virus type 1 group M subtype B, UniProt P04585); experiment: inhibition of HIV-1 reverse transcriptase enzymatic activity; assay type: biochemical
T3 construct: Recombinant HIV-1 RT (HXB2) was obtained as described by Jonckheere et al; made in house
From the text: Poly(rC).oligo(dG) and poly (rA).oligo(dT) were used as template-primers, and 8-[^3H]-dGTP and [^3H]-dTTP were used as radiolabelled substrates.

HIV-1 L4 = assay type: cell-based
[6] = cytotoxicity, viability of mock-infected cells; assay type: cell-based; settings: human, viability of mock-infected MT-4 cells
Method: Cytotoxicity of these compounds was determined in parallel by measuring the viability of mock-infected MT-4 or C8166 cells 5 days post-infection. The antiviral activity and cytotoxicity data, including average values and standard deviations for at least two separate experiments, are depicted in Table 2, wherein: CC50 represents the 50% cytotoxic concentration, i.e. the concentration that reduces by 50% the viability of MT-4 cells.

[7] = system: HIV-1 strains L2, L4 and L6; experiment: antiviral activity against multi-drug resistant (MddNR) HIV-1 strains; assay type: cell-based; settings: strains L2, L4 and L6 versus parental strain L1
[8] = system: HIV-1-derived vectors pseudotyped with the VSV-G envelope; experiment: microbe, parasite or virus in culture; assay type: cell-based; settings: Human immunodeficiency virus 1, HEK-293T, read-out: EC50 inhibition of transduction
HIV-1 = experiment: combined inhibitory effect on HIV-1-induced cytopathic effect, isobologram method; assay type: cell-based; settings: combination with nevirapine, MT-4 cells, FIG. 4
Method: The antiviral effect of compound H was tested in combination with the nucleoside reverse transcriptase inhibitor zidovudine, the non-nucleoside reverse transcriptase inhibitor nevirapine and the protease inhibitor nelfinavir.
The combined inhibitory effect on HIV-1-induced cytopathic effect was evaluated by the isobologram method, as previously described by Elion et al. in J. Biol. Chem. (1954) 208:477-488 and by Baba et al. in Antimicrob. Agents Chemother. (1984) 25:515-517.
EC50, as defined herein before, was used for calculating the fractional inhibitory concentration (hereinafter referred as FIC). When the minimum FIC index corresponding to the FIC of combined compounds (e.g., FICx+FICy) is equal to 1.0, the combination is said to be additive; when it is beween 1.0 and 0.5, the combination is by definition said to be subsynergistic, and when it is <0.5, the combination is by definition said to be synergistic. When the minimum FIC index is between 1.0 and 2.0, the combination is said to be subantagonistic and, when it is >2.0, the combination is defined as antagonistic.

HIV-2 (ROD) = experiment: inhibition of virus-induced cytopathicity in MT-4 cells, HIV-2 (ROD); assay type: cell-based; settings: Human immunodeficiency virus 2, MT4, 120 h, read-out: EC50 HIV-2 ROD

Structure (SMILES): O=[N+]([O-])c1ccc(C2c3c(O)nc(S)nc3Oc3nc(S)nc(O)c32)cc1 [compound H, 5-(4-nitrophenyl)-2,8-dithiol-4,6-dihydroxy-5H-pyrano[2,3-d:6,5-d′]dipyrimidine]
- IC50 [1]: 16.1 ± 10.7 µM
- effect on the DNA strand transfer reaction ([1]; in words): strong inhibitory effect
- IC50 [2]: 0.3 ± 0.2 µM
- inhibition of the overall integration reaction ([2]; in words): inhibited
- EC50 (HIV-1 NL43/AMD3100; Human immunodeficiency virus 1, NL43): 19.1 ± 1.4 µM
- fold increase in EC50 (HIV-1 NL43/AMD3100; NL43/AMD3100 versus wild type strain NL4.3): 1.3
- activity against HIV-1 strain resistant to bicyclam (HIV-1 NL43/AMD3100; in words): active
- binding of integrase to the DNA (HIV-1 integrase): completely abolished
- EC50 [3]: 5.5 to 30 µM
- IC50 [4]: 0.9 ± 0.4 µM
- inhibition of the 3-processing reaction ([4]; in words): inhibited
- EC50 (HIV-1 L1): 3.7 ± 1.8 µM
- EC50 (HIV-1 L2; Human immunodeficiency virus 1): 6 ± 2.3 µM
- fold increase in EC50 (HIV-1 L2; L2 versus wild type strain L1): 1.6
- EC50 (HIV-1(IIIB); Human immunodeficiency virus 1, IIIB, MT4, 120 h): 11.4 µM
- EC50 (HIV-1(IIIB)): 8.9 ± 0.7 µM
- activity against the replication of HIV-1(IIIB) (HIV-1(IIIB); in words): active
- IC50 ([5]; IC50 Poly(A).oligo(dT), template-primer poly(A).oligo(dT)): 24.6 ± 7.2 µM
- IC50 ([5]; IC50 poly(C).oligo(dG), template-primer poly(C).oligo(dG)): 4.8 ± 2.2 µM
- EC50 (HIV-1 L4; Human immunodeficiency virus 1): 11.7 ± 0.7 µM
- fold increase in EC50 (HIV-1 L4; L4 versus wild type strain L1): 3.2
- CC50 at 5 days [6]: 121 µM
- reduction in inhibitory potency [7]: ≤ 3 fold
- EC50 [8]: 17 µM
- added values FICnevirapine+FICV-165 (HIV-1): below 0.5
- EC50 (HIV-2 (ROD)): 30 ± 6.2 µM
